“Also recorded” adds a separate entry of the source.
Key:
[1] = test system: Tyrosinase; experiment: Tyrosinase-L-tyrosine reaction, solution saturated with gas; format: biochemical, Mushroom; settings: for effect: optimal reaction conditions, simple saturation of solution with gas, minus = inhibition; for effect on rate and final equilibrium of the tyrosinase-L-tyrosine reaction: various temperatures; for temperature dependence of the effect on tyrosinase: various temperatures (15-35° C.)
Protocol: (§1) Solution preparation: Optimized w/v solutions are prepared by diluting the enzyme (units/ml) and the substrate (μg/ml) in appropriate buffer (optimized pH and molarity for enzymes). The solutions are used for gas experiments at once to avoid loss of activity. Various enzyme and substrate concentrations and inhibitors may be employed. Physical parameters are varied as required.
(§2) Preparation of samples: Cuvets are filled with 2 ml of substrate solution by means of a gas-tight syringe. Gas-tight serum vials are filled with enzyme and solvent. Sufficient gas is consecutively bubbled in the cuvets and serum vials, with a 1-hr wait between injections to maximize equilibration of gas. All syringes and dead spaces are purged before filling with the appropriate gas. The amount of gas used has been measured sufficient to saturate the solution required.
(§3) Spectrophotometric time-drive, reaction rate, and kinetic analyses: cuvets and serum vials are saturated with gas 40 minutes before the run. A gas-filled syringe is used to retrieve 0.5 ml of enzyme solution to avoid air contact. The 0.5 ml syringe injections of enzyme are made simultaneously to effect a common starting time to for the samples. 7 gases (air, O2, N2, Ne, Ar, Kr, Xe) are run at various temperatures each (from 0° to 60° ). Changes in the rate or final equilibrium of the reaction versus ambient air are recorded. Comparison is also made with added oxygen, and with deoxygenation. Some samples are also prepared under pressure.
1. Solution preparation: 10% w/v solutions are prepared by diluting the enzyme (units/ml) and the substrate (μg/ml) in Sodium Phosphate buffer (pH 6.85, optimized pH for enzymes). The solutions are stored in refrigerator (0°-5° C.) and used for gas experiments within 2 or 3 days to avoid loss of activity.
6. Preparation of run samples: Acrylic cuvets are filled with 2 ml of substrate solution by means of a gas tight syringe. Gastight serum vials are filled with enzyme. 3×10 cc of gas are consecutively bubbled in the cuvets and serum vials, with a […] between injections. This represents a 10× displacement of dead volume while maximizing equilibration of gas. All syringes and dead spaces are purged before filling with the appropriate gas. After the third 10 cc injection, the cuvets and serum vials are left overnight under two 10 cc syringes filled with the appropriate gas in refrigerator at 0°-5° C.
8. Spectrophotometric runs: The cuvets and serum vials are filled with 10 cc of gas 40 min before the run. A gas-filled syringe is used to retrieve 0.5 ml of enzyme solution to avoid air contact. The 0.5 ml syringe injections of enzyme are made simultaneously to effect a common starting time t0 for the samples. Seven gases (air, O2, N2, Ne, Ar, Kr, Xe) are run at five temperatures each (15° C., 20° C., 25° C., 30° C., 35° C.). Changes in the rate or final equilibrium of the reaction versus ambient air are recorded.
The optimal conditions are [E]/[S] (100 μg/ml)/(100 μg/ml), the changes in absorbance being observed at 305 nm.
3×10 cc of gas are bubbled in the silicone-sealed cuvets and serum vials (T-3754, T-7755), with an interval of 20 min (at 0°-5°C.) between each gas injection.
a. The silicone-sealed cuvets are removed from the refrigerator 40 min before the experimental run, filled with 10 cc of gas and left at room temperature (26° C.) under two 10 cc syringes.
The 0.5 ml syringe injections of enzyme are made simultaneously to effect a common starting time t0 for the samples.
200 points, 18 s intervals 1 hr run

[2] = test system: Aspartate aminotransferase; experiment: Aspartate aminotransferase activity under gas; format: biochemical; settings: for effect on aspartate aminotransferase: FIG. 30; for effect: minus = inhibition
Protocol: as §1, §2, §3

[3] = test system: phenylalanine ammonia lyase; experiment: Phenylalanine ammonia lyase activity under gas; format: biochemical; settings: for effect on phenylalanine ammonia lyase: head not printed; for effect on phenylalanine ammonia-lyase: FIG. 32
Protocol: as §1, §2, §3
(§4) In a complete experiment, an enzyme at optimal pH and buffering salt concentration is reacted with 5 substrate concentrations in solution with noble gas at 1 atm. […] Controls are also run after evacuation of solution by vacuum. The reaction is monitored colorimetrically in a scanning spectrophotometer in real time, and the signals are treated mathematically to obtain rate and yield differences. Sample numbers are constant and sufficient to ensure significance of results. All parameters are independently controlled and measured, and more complex experiments are occasionally carried out.

[4] = test system: Tyrosinase; experiment: Gas mixture experiment, tyrosinase; format: biochemical, Mushroom; settings: inhibition vs. air control, 25° C.
Protocol: In addition to mixes of noble gases with nitrogen and oxygen, and of mixes of Kr and Xe, serial mixes of Ar and either Xe or Kr were tested. Results for tyrosinase expressed as inhibition vs. air control: Apr. 18, 1991: Gas mix prep: 120 cc serum vials were used to mix the gassed in. These vials were purged using vacuum while 1 atm of argon was maintained in the vial. The vials were purged for 20 seconds in this manner. The vials were under slight pressure which was released through a needle. This is considered 120 cc of Argon. The necessary volumes of Argon and the gas to be mixed with (Xe or Kr) were then introduced into the vials using a 30 cc syringe and needle. We gassed the enzyme using 1 vial of gas mix using 8×10 cc of gas out of the vial. We gassed the cuvette/substrate using a second vial of gas mix using 8×10 cc of gas out of the vial. Argon and Xenon were retrieved from the gas cylinders. […] We determined that we would be unable to retrieve 8×10 cc of gas mix from 1 vial. […] We prepared the Ar/Kr mixes as described above and did 2 replicates of the 10% and 50% mixes.

[5] = test system: α-D-glucosidase; experiment: α-D-glucosidase activity under gas; format: biochemical; settings: for effect on α-glucosidase activity: 60° C., FIG. 43; for effect on α-D-glucosidase: FIG. 31
Protocol: (§5) Solution preparation: Optimized w/v solutions are prepared by diluting the enzyme (units/ml) and the substrate (μg/ml) in appropriate buffer (optimized pH and molarity for enzymes). The solutions are used for gas experiments at once to avoid loss of activity. Various enzyme and substrate concentrations and inhibitors may be employed. Physical parameters are varied as required. […] Gas-tight serum vials are filled with enzyme and solvent. Sufficient gas is consecutively bubbled in the cuvets and serum vials, with a 1-hr wait between injections to maximize equilibration of gas. All syringes and dead spaces are purged before filling with the appropriate gas. The amount of gas used has been measured sufficient to saturate the solution required. Spectrophotometric time-drive, reaction rate, and kinetic analyses: cuvets and serum vials are saturated with gas 40 minutes before the run. A gas-filled syringe is used to retrieve 0.5 ml of enzyme solution to avoid air contact. […] Changes in the rate or final equilibrium of the reaction versus ambient air are recorded. Comparison is also made with added oxygen, and with deoxygenation. Some samples are also prepared under pressure.

[6] = test system: oxidoreductase enzymes; experiment: Oxidoreductases, effects for the class; format: biochemical; settings: for Maxima for class: effect: Class I oxidoreductases, minus = inhibition
Protocol: as §1, §2, §3, §4

[7] = test system: hydrolases; experiment: Hydrolases, effects for the class; format: biochemical
Protocol: as §1
as §2, with “All syringes and dead spaces are purged before filling with the appropriate gas.” left out
Spectrophotometric time-drive, reaction rate, and kinetic analyses: cuvets and serum vials are saturated with gas 40 minutes before the run. […] Changes in the rate or final equilibrium of the reaction versus ambient air are recorded. […]
In a complete experiment, an enzyme at optimal pH and buffering salt concentration is reacted with 5 substrate concentrations in solution with noble gas at 1 atm. […] The reaction is monitored colorimetrically in a scanning spectrophotometer in real time, and the signals are treated mathematically to obtain rate and yield differences. […]

[8] = test system: lactate dehydrogenase; experiment: Lactate dehydrogenase activity under gas; format: biochemical; settings: 10° C., FIG. 42
Protocol: as §5

[9] = optimized enzyme concentration, first value column
[10] = optimized enzyme concentration, second value column
[11] = optimized enzyme concentration, third value column
[12] = suboptimal enzyme concen., first value column
[13] = suboptimal enzyme concen., second value column
[14] = suboptimal enzyme concen., third value column

| Compound | effect on tyrosinase-L-tyrosine reaction ([1]; 15° C.) | effect on tyrosinase-L-tyrosine reaction ([1]; 20° C.) | effect on tyrosinase-L-tyrosine reaction ([1]; 25° C.) | effect ([1]; 25° C.) [%] | effect on tyrosinase-L-tyrosine reaction ([1]; 30° C.) | effect on rate and final equilibrium of the tyrosinase-L-tyrosine reaction [1] | effect on aspartate aminotransferase [2] | effect [2] [%] | effect on phenylalanine ammonia lyase [3, 9] | effect on phenylalanine ammonia lyase [3, 10] | effect on phenylalanine ammonia lyase [3, 11] | effect on phenylalanine ammonia lyase [3, 12] | effect on phenylalanine ammonia lyase [3, 13] | effect on phenylalanine ammonia lyase [3, 14] | % inhibited ([4]; Mix = % Kr in Ar) [%] | effect on α-glucosidase activity [5] | effect on α-D-glucosidase [5] | effect on oxidoreductase reactions [6] | Maxima for class: effect [6] [%] | temperature dependence of the effect on tyrosinase [1] | also measured |
| --- | --- | --- | --- | --- | --- | --- | --- | --- | --- | --- | --- | --- | --- | --- | --- | --- | --- | --- | --- | --- | --- |
| [Ar] [Ar, argon] | slightly inhibits equilibrium | effective inhibitors; also recorded: strong inhibition; also recorded: dramatically inhibit; also recorded: better inhibition by argon at 20 °C than neon; also recorded: inhibiting effects | inhibit at a lesser level than the other noble gases; also recorded: less inhibition at 25 °C than neon; also recorded: inhibitory effect | -60 | inhibitory effect | inhibition; also recorded: surprisingly active at low temperatures | inhibition | -17 | +6 | +1 | +3 | -1 | +1 | +6.5 | -75 | enhanced; also recorded: potent enhancer | enhancement | very active at low temperatures | -91 |  | % inhibited ([4]; Mix = % Xe in AR): -75% |
| [Kr] [Kr, krypton] | strong effects; also recorded: large inhibitory effect |  | inhibitory effect | -73 | inhibitory effect | inhibition | inhibition | -82 | +7 | +4 | +4 | +3 | +18 | +14 | -77 | inhibited |  | somewhat lesser effect than xenon | -91 | direct inverse (negative) relationship; also recorded: activity transition occuring between 20 °C and 25 °C | effect on tyrosinase-L-tyrosine reaction ([1]; 20° C., listed as Krypton): lesser inhibitory effect; effect on tyrosinase-L-tyrosine reaction ([1]; 20° C., listed as krypton): effective inhibitors; also recorded: almost of equal effect; also recorded: lesser effect; also recorded: inhibiting effects; effect on hydrolases [7]: least such effect |
| N#N [N2, nitrogen, reference compound] |  |  | inhibit at a lesser level than the other noble gases |  |  | effective in inhibiting tyrosinase activity; also recorded: inhibition |  |  | +19 | 0 | +6 | 0 | 0 | +12 |  | enhanced | enhancement |  |  | transitional maxima is observed after 20 °C | effect on tyrosinase-L-tyrosine reaction ([1]; 20° C., listed as Nitrogen): inhibits the reaction fairly well; effect on tyrosinase-L-tyrosine reaction ([1]; 20° C., listed as nitrogen): lesser inhibitory effect; effect on phenylalanine ammonia-lyase [3]: enhancement |
| [Ne] [Ne, neon] | strong effects; also recorded: large inhibitory effect | effective inhibitors; also recorded: dramatically inhibit; also recorded: inhibiting effects | inhibitory effect | -46.7 | inhibitory effect |  |  | -12 | -2 | +6 | -6 | +15 | 0 | +6 |  |  | enhancement |  | -85 | activity transition occuring between 20 °C and 25 °C; also recorded: positively temperature dependent | effect on phenylalanine ammonia-lyase [3]: enhancement; effect on lactate dehydrogenase [8]: inhibiting |
